The results in this text go back to patent publication US11192891B2, “Diazaspiro ROCK inhibitors” (BRISTOL-MYERS SQUIBB COMPANY, priority 2017, dated 2021).

Structures are written as SMILES.

The target in this test is ROCK2 (Homo sapiens, UniProt O75116). As to the kind of experiment: ROCK kinase inhibition assay, FITC peptide substrate, LABCHIP 3000 readout. In kind it is biochemical. Conditions: 5 μM ATP, 1.5 μM peptide substrate. On the procedure: Compounds were dissolved in DMSO so that the final concentration of DMSO was <2%, and the reaction was initiated with Rho kinase variants. After incubation, the reaction was terminated by the addition of EDTA and the phosphorylated and non-phosphorylated peptides separated using a LABCHIP® 3000 Reader (Caliper Life Sciences). […] Compounds were tested in dose-response format, and the inhibition of kinase activity was calculated at each concentration of compound.
Sequence of ROCK2 (O75116 whole entry, species assumed): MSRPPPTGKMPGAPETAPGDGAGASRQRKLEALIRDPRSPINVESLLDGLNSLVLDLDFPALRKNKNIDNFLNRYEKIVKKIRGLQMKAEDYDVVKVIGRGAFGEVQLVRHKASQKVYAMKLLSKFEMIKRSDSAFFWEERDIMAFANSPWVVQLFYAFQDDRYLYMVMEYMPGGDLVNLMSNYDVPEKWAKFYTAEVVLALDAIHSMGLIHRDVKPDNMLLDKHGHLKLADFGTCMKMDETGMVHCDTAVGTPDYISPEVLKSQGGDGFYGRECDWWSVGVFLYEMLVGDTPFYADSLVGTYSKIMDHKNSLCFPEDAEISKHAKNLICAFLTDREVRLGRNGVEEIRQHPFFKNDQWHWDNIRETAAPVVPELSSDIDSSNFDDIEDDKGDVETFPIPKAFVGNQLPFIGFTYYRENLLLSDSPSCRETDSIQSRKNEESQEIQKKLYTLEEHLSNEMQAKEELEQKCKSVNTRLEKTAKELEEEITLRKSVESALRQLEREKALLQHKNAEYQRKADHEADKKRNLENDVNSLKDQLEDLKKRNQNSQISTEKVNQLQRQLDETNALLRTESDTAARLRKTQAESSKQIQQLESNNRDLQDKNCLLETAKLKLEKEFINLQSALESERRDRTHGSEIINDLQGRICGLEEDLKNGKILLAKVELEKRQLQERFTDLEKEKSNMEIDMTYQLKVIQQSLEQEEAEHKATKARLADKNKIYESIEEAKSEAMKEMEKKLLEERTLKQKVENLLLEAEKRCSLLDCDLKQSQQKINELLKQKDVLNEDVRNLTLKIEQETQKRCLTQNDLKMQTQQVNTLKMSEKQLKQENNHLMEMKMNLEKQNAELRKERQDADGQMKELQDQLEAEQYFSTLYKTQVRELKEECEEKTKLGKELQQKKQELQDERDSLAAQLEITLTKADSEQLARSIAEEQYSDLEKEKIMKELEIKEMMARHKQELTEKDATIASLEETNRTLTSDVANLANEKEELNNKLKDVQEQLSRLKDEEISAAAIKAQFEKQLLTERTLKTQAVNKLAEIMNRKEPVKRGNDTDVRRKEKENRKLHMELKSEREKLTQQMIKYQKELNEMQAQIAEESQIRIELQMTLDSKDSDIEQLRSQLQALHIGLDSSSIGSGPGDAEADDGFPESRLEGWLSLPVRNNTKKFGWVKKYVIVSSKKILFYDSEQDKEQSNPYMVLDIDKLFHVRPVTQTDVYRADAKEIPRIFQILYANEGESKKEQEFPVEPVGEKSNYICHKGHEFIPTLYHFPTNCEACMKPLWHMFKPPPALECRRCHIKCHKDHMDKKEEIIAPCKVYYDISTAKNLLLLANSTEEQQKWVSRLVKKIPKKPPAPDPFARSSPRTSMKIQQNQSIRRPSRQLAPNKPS
Usually IC50 stands for the concentration that inhibits the measured activity by half. The molecule `COc1cc(N2CCC3(CCN(C(=O)c4ccc(N5CCN(Cc6ccc(C(F)(F)F)cc6)CC5)cc4)CC3)C2=O)ccc1-c1cn[nH]c1` [Example 234, 2-[3-methoxy-4-(1H-pyrazol-4-yl)phenyl]-8-[4-(4-{[4-(trifluoromethyl)phenyl]methyl}piperazin-1-yl)benzoyl]-2,8-diazaspiro[4.5]decan-1-one] yielded an IC50 of 4.1 nM. The result for `COc1cc(N2CCC3(CCN(C(=O)c4ccc(N5CCNC5=O)cc4)CC3)C2=O)ccc1-c1cn[nH]c1` [Example 139, 2-[3-methoxy-4-(1H-pyrazol-4-yl)phenyl]-8-[4-(2-oxoimidazolidin-1-yl)benzoyl]-2,8-diazaspiro[4.5]decan-1-one] reads 3.7 nM; that for `COc1cc(N2CCC3(CCN(C(=O)c4ccc(-n5ccncc5=O)cc4F)CC3)C2=O)ccc1-c1cn[nH]c1` [Example 136, 8-[2-fluoro-4-(2-oxo-1,2-dihydropyrazin-1-yl)benzoyl]-2-[3-methoxy-4-(1H-pyrazol-4-yl)phenyl]-2,8-diazaspiro[4.5]decan-1-one], 4.2 nM; that for `COc1cc(N2CCC3(CCN(C(=O)c4ccc(-n5ccccc5=O)cc4)CC3)C2=O)ccc1-c1cn[nH]c1` [Example 117, 2-[3-methoxy-4-(1H-pyrazol-4-yl)phenyl]-8-[4-(2-oxo-1,2-dihydropyridin-1-yl)benzoyl]-2,8-diazaspiro[4.5]decan-1-one], 7 nM. `COc1cc(N2CCC3(CCN(C(=O)c4cc(C)[nH]n4)CC3)C2=O)ccc1-c1cn[nH]c1` [Example 187, 2-[3-methoxy-4-(1H-pyrazol-4-yl)phenyl]-8-(5-methyl-1H-pyrazole-3-carbonyl)-2,8-diazaspiro[4.5]decan-1-one] registered an IC50 of 27 nM.

As for `COc1cccc(C(=O)N2CCC3(CC2)CCN(c2ccc(-c4cn[nH]c4)cc2)C3=O)c1` [Example 5, 8-(3-methoxybenzoyl)-2-[4-(1H-pyrazol-4-yl)phenyl]-2,8-diazaspiro[4.5]decan-1-one], inhibition was half-maximal at 85 nM (IC50). For `COc1cc(N2CCC3(CCN(C(=O)c4ccc(N5CCN(Cc6ccc(-c7ccccc7)cc6)CC5)cc4)CC3)C2=O)ccc1-c1cn[nH]c1` [Example 225, 8-{4-[4-({[1,1′-biphenyl]-4-yl}methyl)piperazin-1-yl]benzoyl}-2-[3-methoxy-4-(1H-pyrazol-4-yl)phenyl]-2,8-diazaspiro[4.5]decan-1-one] the value was 4.5 nM; for `COc1cc(N2CCC3(CCN(C(=O)c4ccc(C(F)(F)F)cn4)CC3)C2=O)ccc1-c1cn[nH]c1` [Example 98, 2-[3-methoxy-4-(1H-pyrazol-4-yl)phenyl]-8-[5-(trifluoromethyl)pyridine-2-carbonyl]-2,8-diazaspiro[4.5]decan-1-one], 259 nM. Molecule `COc1cc(N2CCC3(CCN(C(=O)c4cnc5ccccc5c4)CC3)C2=O)ccc1-c1cn[nH]c1` [Example 74, 2-[3-methoxy-4-(1H-pyrazol-4-yl)phenyl]-8-(quinoline-3-carbonyl)-2,8-diazaspiro[4.5]decan-1-one] showed an IC50 of 78 nM. `COc1cc(N2CCC3(CCN(C(=O)c4ccc(N5CCN(C(C)CO)CC5)cc4)CC3)C2=O)ccc1-c1cn[nH]c1` (stereo not shown) [Example 242, 8-{4-[4-(1-hydroxypropan-2-yl)piperazin-1-yl]benzoyl}-2-[3-methoxy-4-(1H-pyrazol-4-yl)phenyl]-2,8-diazaspiro[4.5]decan-1-one] came in with a half-maximal inhibitory concentration (IC50) of 0.7 nM. For `COc1cc(N2CCC3(CCN(C(=O)c4ccc5ccccc5c4)CC3)C2=O)ccc1-c1cn[nH]c1` [Example 64, 2-[3-methoxy-4-(1H-pyrazol-4-yl)phenyl]-8-(naphthalene-2-carbonyl)-2,8-diazaspiro[4.5]decan-1-one] the value was 104 nM; for `COc1cc(N2CCC3(CCN(C(=O)c4ccc5c(cnn5C)c4)CC3)C2=O)ccc1-c1cn[nH]c1` [Example 152, 2-[3-methoxy-4-(1H-pyrazol-4-yl)phenyl]-8-(1-methyl-1H-indazole-5-carbonyl)-2,8-diazaspiro[4.5]decan-1-one], 6.2 nM. For `COc1ccccc1C(=O)N1CCC2(CC1)CCN(c1ccc(-c3cn[nH]c3)c(OC)c1)C2=O` [Example 12, 2-[3-methoxy-4-(1H-pyrazol-4-yl)phenyl]-8-(2-methoxybenzoyl)-2,8-diazaspiro[4.5]decan-1-one] the value was 54 nM; for `COc1cc(N2CCC3(CCN(C(=O)c4cc(C5CC5)n[nH]4)CC3)C2=O)ccc1-c1cn[nH]c1` [Example 111, 8-(3-cyclopropyl-1H-pyrazole-5-carbonyl)-2-[3-methoxy-4-(1H-pyrazol-4-yl)phenyl]-2,8-diazaspiro[4.5]decan-1-one], 17 nM; for `COc1cc(N2CCC3(CCN(C(=O)c4ccc(N5CCCC5=O)cc4)CC3)C2=O)ccc1-c1cn[nH]c1` [Example 128, 2-[3-methoxy-4-(1H-pyrazol-4-yl)phenyl]-8-[4-(2-oxopyrrolidin-1-yl)benzoyl]-2,8-diazaspiro[4.5]decan-1-one], 13 nM. For `COc1ccc(C(=O)N2CCC3(CC2)CCN(c2ccc(-c4cn[nH]c4)c(OC)c2)C3=O)c(F)c1` [Example 17, 8-(2-Fluoro-4-methoxybenzoyl)-2-[3-methoxy-4-(1H-pyrazol-4-yl)phenyl]-2,8-diazaspiro[4.5]decan-1-one] the value was 8 nM; for `COc1cc(N2CCC3(CCN(C(=O)c4ccc(-n5cncn5)cc4)CC3)C2=O)ccc1-c1cn[nH]c1` [Example 106, 2-[3-methoxy-4-(1H-pyrazol-4-yl)phenyl]-8-[4-(1H-1,2,4-triazol-1-yl)benzoyl]-2,8-diazaspiro[4.5]decan-1-one], 25 nM. In turn, `COc1cc(N2CCC3(CCN(C(=O)c4ccc(C(N)=O)cc4)CC3)C2=O)ccc1-c1cn[nH]c1` [Example 23, 4-{2-[3-methoxy-4-(1H-pyrazol-4-yl)phenyl]-1-oxo-2,8-diazaspiro[4.5]decane-8-carbonyl}benzamide] registered an IC50 of 36 nM. The result for `COc1cccc(C(=O)N2CCC3(CC2)CN(c2ccc(-c4cn[nH]c4)cc2)C3=O)c1` [Example 41, 7-(3-methoxybenzoyl)-2-[4-(1H-pyrazol-4-yl)phenyl]-2,7-diazaspiro[3.5]nonan-1-one] reads 285 nM; that for `COc1ccc2cc(C(=O)N3CCC4(CC3)CCN(c3ccc(-c5cn[nH]c5)c(OC)c3)C4=O)n(C)c2c1` [Example 170, 8-(6-methoxy-1-methyl-1H-indole-2-carbonyl)-2-[3-methoxy-4-(1H-pyrazol-4-yl)phenyl]-2,8-diazaspiro[4.5]decan-1-one], 118 nM; that for `CN1CCN(c2ccc(C(=O)N3CCC4(CC3)CCN(c3ccc(-c5ccc6nn[nH]c6c5)cc3)C4=O)cc2)CC1` [Example 38, 2-[4-(1H-1,2,3-benzotriazol-6-yl)phenyl]-8-[4-(4-methylpiperazin-1-yl)benzoyl]-2,8-diazaspiro[4.5]decan-1-one], 116 nM. For `COc1cc(N2CCC3(CCN(C(=O)c4cccc(C(F)(F)F)c4)CC3)C2=O)ccc1-c1cn[nH]c1` [Example 58, 2-[3-methoxy-4-(1H-pyrazol-4-yl)phenyl]-8-[3-(trifluoromethyl)benzoyl]-2,8-diazaspiro[4.5]decan-1-one] the value was 144 nM.
